Laboratory results from patent US20230263900A1, “DENDRIMER-DRUG CONJUGATE” (priority 2020, published 2023).

Columns and labels:
[1] = parameters: species or system rats; settings: rat, in vivo
Experimental: The dendrimer BHALys[Lys]2[Lys]4[Lys]8[Lys]16(PEG2000)32 was constituted to 10 mg/ml in PBS and stored at −20° C. until required. The construction of the dendrimer was as described previously (Kaminskas L M, et al Mol Pharm. 2008 May-June; 5(3):449-63).
Rats were intravenously administered 1 ml of dendrimer in sterile saline over 2 mins. […] For the pharmacokinetic evaluation of dendrimer administered to the lungs as an aerosolized dose, rats were cannulated only via the right carotid artery. Rats were administered 1 mg of dendrimer in 100 μl saline via intratracheal insertion of the Penn Century micro spray aerosol device to the lungs of rats under isoflurane anaesthesia. […] Plasma, urine, feces and lungs were analysed for radiolabel via liquid scintillation counting
(n=4-5 rats) and data is normalized to 5 mg/kg dendrimer. […] Data in Figure B represents mean±s.d. (n=4 rats) 7 days after the pulmonary dose.

[2] = Release of Remdesivir in PBS buffer (Release Method 1); assay type: physicochemical; settings: PBS buffer with 10% v/v DMSO, pH 7.4, 37° C.
Experimental: Release Method 1: An accurately weighed amount of the Remdesivir-dendrimer (10 mg) construct was dissolved in pH 7.4 PBS buffer:DMSO (9:1 v/v) and the volume made up to 20.0 mL in a volumetric flask to give a 0.5 mg/mL stock solution. The stock solution was aliquoted into several 2 mL screw-cap vials, the caps fitted and the vials heated at 37° C. The aliquoted solutions were analyzed at different time points by HPLC (HPLC Method 3). The concentration of Remdesivir RHa-1 was calculated by comparing the area under the peak associated with Remdesivir RHa-1 to a standard curve in MeCN:DMSO (9:1, v/v). The percentage of Remdesivir RHa-1 released is the percentage of available Remdesivir RHa-1 based on the loading of the construct as determined by ^1H NMR analysis (API Loading Method 1).
The extent to which the Remdesivir RHa-1 was released over time in PBS buffer (with 10% v/v DMSO) (pH 7.4) at 37° C. was determined for 5 constructs, RHa-17, RHa-15, RHa-11, RHa-5 and RHa-3 (Release Method 1) over 120 hours.
Trace amounts of other components were also observed (presumed to be degradation products of Remdesivir RHa-1). The area under the resolvable (separated) peaks associated with these degradants was also added to the peak area associated with released Remdesivir RHa-1.
BHALys [Lys]2[Lys]4[Lys]8[Lys]16[Lys]32[(α-NH-6N-TDA-Remdesivir)32(ε-NH-COPEG2000)32] RHa-5 contained 1.77% free Remdesivir RHa-1 at t=0 min. The value of released Remdesivir RHa-1 shown in FIG. 3 has been adjusted to take this into account.

Solubility studies = assay type: physicochemical
Experimental: The solubility of BHALys[Lys]2[Lys]4[Lys]8[Lys]16[Lys]32[(α-NH-3′ O-Glu-Remdesivir)32(ε-NH-COPEG2000)32] RHa-3 in water was determined to be ≥200 mg/mL (or ≥43.6 mg/mL Remdesivir RHa-1) by adding water (250 μL) to 50.0 mg of BHALys [Lys]2[Lys]4[Lys]8[Lys]16[Lys]32[(α-NH-3′ O-Glu-Remdesivir)32(ε-NH-COPEG2000)32] and swirling briefly. After 2 min, the resulting solution was visually inspected for particulates and found to be a clear solution (see FIG. 2). Solutions shown are 40 mg/ml Remdesivir equivalents (equivalent to 200 mg/ml of conjugate RHa-3).
The solubility of BHALys[Lys]2[Lys]4[Lys]8[Lys]16[Lys]32[(α-NH-6N-TDA-Remdesivir)32(ε-NH-COPEG2000)32] RHa-5, in EtOH:Water (1:9 v/v) was determined to be ≥543 mg/mL (or ≥107 mg/mL Remdesivir RHa-1) by adding water EtOH:Water (1:9 v/v, 400 μL) to 380 mg of RHa-5. The mixture was swirled briefly and left to stand at rt. After 1.5 h the resulting solution (volume recorded=700 μL) was visually inspected for particulates and found to be a clear solution.
The solubility of BHALys[Lys]2[Lys]4[Lys]8[Lys]16[Lys]32[(α-NH-6N-TDA-Remdesivir)32(ε-NH-COPEG1000)32] RHa-17 in EtOH:Water (1:9 v/v) was determined to be ≥354* mg/mL (or ≥85 mg/mL Remdesivir RHa-1) by adding EtOH:Water (1:9 v/v, 958 μL) portionwise to 525 mg of RHa-17, over a period of 1.5 h with intermittent swirling. The resulting solution was visually inspected for particulates and found to be a clear solution.
(*Total volume not recorded. Assumes 1 mg construct contributes to 1 μL of final solution (i.e., total volume of final solution=1483 μL)).

in vivo = test: in vivo
Experimental: The ability to deliver dendrimer-drug conjugates via the pulmonary route was evaluated.
Male Sprague Dawley (SD) rats (8-9 weeks, 270-320 g) were obtained from Monash Animal Services (VIC, Australia). Female F344 rats (8-10 weeks) were supplied by Animal Resources Centre (Perth, Australia).
Blood samples and urine were then collected for up to 5 days. […] At the completion of the study, bronchoalveolar lavage fluid (BALF), lungs, liver, heart, spleen, kidneys and pancreas were collected from rats for biodistribution analysis. BALF was collected via the intratracheal perfusion of 3×5 ml saline Alveolar macrophages were isolated from BALF via centrifugation at 600×g for 10 mins. […] Plasma, urine, feces, and organs were analysed for radiolabel via liquid scintillation counting. Total doxorubicin in plasma, BALF and lung tissue in pulmonary dosed rats was analysed via a fluorescence HPLC (Kaminskas L M, et al, Nanomedicine. 2012 January; 8(1):103-11).
Data are represented as mean±s.d. (n=3-7).

[3] = cited from earlier work
[4] = Viscosity measurements (Viscosity Method 1); assay type: physicochemical; settings: 50 mg/mL Remdesivir equivalents in EtOH: Water (1:9 v/v)
Experimental: Viscosities were measured on Anton Paar ViscoQC300 Viscometer using CC-12 cup.
Viscosity Method 1: A reference standard solution (Standard Type: RT500, CAS No. 63148-62-9, Paragon Scientific Ltd) was first recorded and found to be within the range of reported value (at 20° C.: found 556.6 cP, theoretical 551.0 cP; at 25° C.: found 503.3 cP, theoretical 498.6 cP). Accurately weighed quantities of respective conjugates were dissolved in EtOH:Water […] to make a 50 mg/mL Remdesivir equivalent solution (total volume 2.30-2.40 mL) and the viscosity of the solution was recorded at 20° C. and 25° C.
Viscosities of 2 formulations containing either RHa-5 or RHa-17 in EtOH: Water (1:9 v/v) were measured using Viscosity Method 1

[5] = male, Sprague-Dawley, rat, in vivo
[6] = male, Sprague-Dawley, rat, in vivo, inhaled or intranasal, 0.6 mg

Molecule: BHALys[Lys]2[Lys]4[Lys]8[Lys]16(PEG2000)32
- Bioavailability after lung delivery [1]: 2.4±3.3%

Molecule: BHALys[Lys]2[Lys]4[Lys]8[Lys]16[Lys]32[(α-NH-3′O-Glu-Remdesivir)32(ε-NH-COPEG2000)32] [RHa-3]
- Approx. Time taken for 50% Remdesivir release [2]: >120 h
- Solubility in water (Solubility studies; water, conjugate mass, visual inspection after 2 min): ≥ 200 mg/mL
- Solubility in water, as Remdesivir RHa-1 (Solubility studies; water, expressed as Remdesivir RHa-1): ≥ 43.6 mg/mL

Molecule: COc1cccc2c1C(=O)c1c(O)c3c(c(O)c1C2=O)C[C@@](O)(C(=O)CO)C[C@@H]3O[C@H]1C[C@H](N)[C@H](O)[C@H](C)O1 [Doxorubicin, doxorubicin]
- Fabs 0-∞, doxorubicin (in vivo; [5]): 83 ± 9%
- Kel, doxorubicin (in vivo; [5]): 0.132 ± 0.010 ^−h
- Tmax (in vivo; [6]): 6 ± 3 min
- half-life (in vivo; [6]): 5 ± 0.4 h
- AUC (in vivo; male, Sprague-Dawley, rat, in vivo, iv, 0.75 mg/kg): 0.21 ± 0.04 µg·h/mL
- AUC (in vivo; male, Sprague-Dawley, rat, plasma, inhaled or intranasal, 0.6 mg): 0.17 ± 0.02 µg·h/mL
- Kel, doxorubicin (in vivo; rats, intravenous, doxorubicin normalized to 0.75 mg/kg): 0.518 ± 0.312 ^−h

Molecule: N#C[C@@]1(c2ccc3c(N)ncnn23)O[C@H](CO)[C@@H](O)[C@H]1O [GS-441524]
- AUC0-24 ([3]; IV infusion of 200 mg Remdesivir, healthy human subjects): 7.7 µM·h
- Cmax ([3]; after 200 mg dose of Remdesivir): 0.152 µg/mL
- Peak plasma concentration ([3]; after 30 minutes infusion of Remdesivir): about 150 ng/ml

Molecule: BHALys[Lys]2[Lys]4[Lys]8[Lys]16[Lys]32[(α-NH-6N-TDA-Remdesivir)32(ε-NH-COPEG1000)32] [RHa-17]
- Approx. Time taken for 50% Remdesivir release [2]: ~48 h
- Solubility in EtOH:Water (1:9 v/v) (Solubility studies; EtOH:Water (1:9 v/v), conjugate mass, rt): ≥ 354 mg/mL
- Solubility in EtOH:Water (1:9 v/v), as Remdesivir RHa-1 (Solubility studies; EtOH:Water (1:9 v/v), expressed as Remdesivir RHa-1): ≥ 85 mg/mL
- Viscosity at 20° C. [4]: 38.99 cP
- Viscosity at 25° C. [4]: 29.32 cP

Molecule: BHALys[Lys]2[Lys]4[Lys]8[Lys]16[Lys]32[(α-NH-3′O-DGA-Remdesivir)32(ε-NH-COPEG2000)32] [RHa-11]
- Approx. Time taken for 50% Remdesivir release [2]: ~3 h
